Assay results as given in US20250367283A1, “MEVALONATE PATHWAY INHIBITOR AS HIGHLY-EFFICIENT VACCINE ADJUVANT” (Tsinghua University, priority 2015, published 2025).
Where two headings read alike, the source gives them in different places.

Experiments:
[1] = biological target: humanized farnesyl pyrophosphate synthase (HsFPPS) (Homo sapiens (Human), UniProt P14324); test: In vitro HsFPPS enzyme activity assay; format: biochemical
Protocol: The measurement method is briefly described as follows: the expression of HsFPPS with 6 consecutive His at the N-terminus was induced in vitro, collected, and purified by Ni column. An in vitro HsFPPS enzyme activity assay was performed in a 96-well plate with 200 μl of solution per well. The buffer of the system was 25 mM HEPES, 2.5 mM MgCl2, pH 7.4. Using DMAPP and IPP as reaction substrates, the change of the UV value at a wavelength of 360 nm was monitored in real time in a phosphate lyase system. The ORIGIN 8.0 software was used to plot and fit. The IC50 values for the inhibition of FPPS by the TH-Z80 series of compounds were shown in the following table, in micromoles per liter (μM).
(§1) HsFPPs with 6 consecutive His at the N-terminus was induced to express in vitro, collected, and purified by Ni column. In vitro HsFPPs enzymatic activity assay was performed in a 96-well plate at 200 μl of solution per well. The buffer of the system was 25 mM HEPES, 2.5 mM MgCl2, pH 7.4. Using DMAPP and IPP as reaction substrates, the changes of UV at 360 nm were monitored in real-time in phosphate lyase system. ORIGIN 8.0 software was used to plot and fit.

[2] = system: anti-OVA IgM and IgG antibodies; test: OVA evaluation system: adjuvant activity in antibody titer in mice; format: in vivo; settings: for IgM and IgG antibody titers vs PBS or DMSO control / adjuvant effect among statin drugs: statins with OVA, soles injection; for IgM and IgG antibody titers vs PBS or DMSO control: Day 7 and Day 14
Protocol: OVA evaluation system was used to determine adjuvant activity in antibody titer.
Mice of C57B/6 strain were used. The mice in the experimental group were injected with the obtained mixture of each of the statins and OVA antigen through soles injection, with 20 μl for each mouse. The mice in the control group were injected with a 1:1 mixture of PBS or DMSO (10 μl) and 10 μl OVA antigen (PBS or DMSO is 10 μl, respectively, and the antigen is 10 μl) through soles injection, with 20 μl for each mouse. On Day 7 and Day 14 after immunization, blood was taken from the mice's orbits, with 100 μl was taken from each mouse. The obtained blood was left at 4° C. overnight, and centrifuged at 6000 rpm for 8 min. The supernatant serum was removed and the titers of anti-OVA IgM and IgG antibodies in the serum were determined.
Test of the OVA antibody titer: The OVA protein was diluted to a concentration of 2 μg/ml with a carbonate solution of pH 9.6, coated in a 96-well ELISA plate at 50 μl per well, and left at 4° C. overnight. The ELISA plate was washed five times with PBS containing 0.05% Tween 20, blocked with 1% BSA solution at 200 μl per well, and incubated at room temperature for 2 h. The ELISA plate was washed five times with PBST (Phosphate Buffered Saline with Tween), a 2-fold serial dilution of the mouse serum after immunized with OVA was added at 50 μl per well and incubated at room temperature for 2 h. After the ELISA plate was washed five times with PBST, HRP (horseradish peroxidase)-labeled goat-anti-mouse IgM or IgG antibody was added and incubated at room temperature for 45 min. The ELISA plate was washed five times with PBST, and a color developing solution of sodium citrate OPD (o-phenylenediamine) was added. After 10 min of color development in the dark, sulfuric acid was added to terminate the reaction. The reading was performed with ELIASA OD490. The maximum serum dilution factor, when the ratio of light absorptions of the experimental group to the control group was >2.0, was the titer of the anti-OVA antibody in the serum.
Each test compound was formulated at a concentration of 2 mg/ml and the concentration of OVA antigen was 2 mg/ml. Each compound was mixed with OVA at 1:1. Each C57B/6 mouse in the experimental group was injected with 100 μl of the mixture (containing 50 μl of the antigen and 50 μl of the compound) by intramuscular injection at the right thigh. On Day 7 and Day 14 after immunization, blood was taken from the mice's orbit, and 100 μl was taken for each mouse. The obtained blood was allowed to stand at 4° C. overnight, and centrifuged at 6000 rpm for 8 min. The supernatant serum was removed, and the titers of anti-OVA IgM and IgG antibodies in the serum were determined.
Method: each of the test compounds (the 10 bisphosphonates as described above) was mixed with the OVE antigen at 1:1, and the concentrations of bisphosphonic acid and OVA were both 10 mg/ml. Mice of C57B/6 strain were used. The mice in the experimental group were injected with the mixture of each of the test compounds and OVA antigen through soles injection, with 20 μl for each mouse, and wherein the amounts of OVA antigen and each of the test compounds were both 100 ug. The mice in the control group were injected with a 1:1 mixture of […] and 10 μl OVA antigen through sole injection. On Day 7 and Day 14 after immunization, blood was taken from the mice's orbits, and 100 μl was taken from each mouse.
The obtained blood was left at 4° C. overnight, and centrifuged at 6000 rpm for 8 min. The supernatant serum was removed, and the titers of anti-OVA IgM and IgG antibodies in the serum were determined.
Method: TH-Z144 and TH-Z145 were prepared at the concentration of 10 mg/ml, the concentration of OVA antigen was also 10 mg/ml, and the compound and the antigen were mixed at 1:1. Mice of C57B/6 strain were used.

[3] = system: PvGGPPS (geranylgeranyl pyrophosphate synthase from Plasmodium); test: In vitro PvGGPPS enzymatic activity assay; format: biochemical; settings: GPP and IPP substrates
Protocol: as §1, with “PvGGPPs” for “HsFPPs”, “GPP” for “DMAPP”, “a” for “the changes of UV at”, “continuous spectrophotometric detection was performed” for “were monitored”, “a” for “real-time in”

[4] = system: Plasmodium falciparum 3D7; test: Test of plasmodium activity (SYBR-GREEN1); format: cell-based; settings: infected erythrocytes, 72 hours; read-out: Malaria (IC50/μM)
Protocol: Plasmodium falciparum 3D7 was cultured with […] medium mixed with 10% human O-type blood serum and 25 mM HEPES. The cultivation process was maintained in a carbon dioxide incubator under 5% carbon dioxide. In vitro drug testing experiments were performed on a 96-well plate. The test drug was dissolved in PBS and pre-diluted with complete medium. Infected erythrocytes were cultured in triplicate for 72 hours in 3-fold serial dilutions of drug. Then an equal amount of SYBR-GREEN1 was added to each well. The detection was then performed at 485 nm for excitation light and 538 nm for emitted light. […] ORIGIN 8.0 software was used to plot and fit.

MDA-MB-231 cells = test: MDA-MB-231 proliferation MTT test; format: cell-based, human; settings: 72 hours
Protocol: • Drug dissolution: […] The prepared bisphosphonate stock solution was diluted with DMEM complete medium. The maximum concentration was 1 mM. The dilution was performed serially in a ratio of 1:3.2 with a total of 11 concentration gradients; a. MDA-MB-231 cells were digested the day before. Centrifugation was performed at 1000 rmp for 3 min. The cells were counted. The cells were seeded into a 96-well plate at 3000 cells/well in a volume of 100 μl per well and cultured for 14-16 h. It should be noted that the cell count should be accurate, and the amount of cells seeded per well should be consistent. The cell suspension can be gently shaken in the intermittence of plating, or a row of cells were plated and the cell suspension was pipetted gently with a pipette. The speed of pipetting into the 96-well plate with a pipette should not be too fast or too slow, in order to avoid uneven distribution of cells in the plate, affecting the experiments; the wells at the fringe of the 96-well plate will evaporate slightly faster and the concentration of the solution will change slightly faster. Under normal situation, the central 60 wells should be selected for stimulation. Also, the pipetted liquid should be prevented from creating bubbles. b. After the cells had adhered, the liquid in the 96-well plate was pipetted out and discarded. […] c. 72 hours after the action of drug, the prepared MTT solution (immediately before use, a certain amount of MTT powder was weighed and dissolved in PBS at 5 mg/ml, under dark, filter with 0.22 filter membrane) was added directly to each well with 20 μl per well and continued to culture for 4 hours; d. The filter paper (which can be replaced by an absorbent paper) was laid, and the plate was inverted gently (be careful to prevent the crystal in the well from dropping). After the liquid in the wells was removed, 150 μl of DMSO was added to dissolve the crystals, and the mixture was shaken thoroughly with a shaker for a period of time just to dissolve the crystals. The absorbance (OD value) of each well was measured at 570 nm with ELIASA. The mean value of blank control was calculated as OD Blank. OD value for each well=OD measured-OD Blank. ODNT mean value was calculated. […] Mean and standard error were then calculated. The mean and standard error of each group of drug concentration (uM) and corresponding drug inhibition rate were fitted by Graph Prism software to obtain the IC50 of the drug.

[5] = o-aminopyridine bisphosphonic acid compounds, read-out: IC50 (inhibition of FPPS)
[6] = Example 15 table, read-out: HsFPPS (IC50/μM)
[7] = TH-Z80 series, DMAPP and IPP substrates, pH 7.4, read-out: IC50 for inhibition of FPPS

Chain of humanized farnesyl pyrophosphate synthase (HsFPPS) (P14324 whole entry, looked up): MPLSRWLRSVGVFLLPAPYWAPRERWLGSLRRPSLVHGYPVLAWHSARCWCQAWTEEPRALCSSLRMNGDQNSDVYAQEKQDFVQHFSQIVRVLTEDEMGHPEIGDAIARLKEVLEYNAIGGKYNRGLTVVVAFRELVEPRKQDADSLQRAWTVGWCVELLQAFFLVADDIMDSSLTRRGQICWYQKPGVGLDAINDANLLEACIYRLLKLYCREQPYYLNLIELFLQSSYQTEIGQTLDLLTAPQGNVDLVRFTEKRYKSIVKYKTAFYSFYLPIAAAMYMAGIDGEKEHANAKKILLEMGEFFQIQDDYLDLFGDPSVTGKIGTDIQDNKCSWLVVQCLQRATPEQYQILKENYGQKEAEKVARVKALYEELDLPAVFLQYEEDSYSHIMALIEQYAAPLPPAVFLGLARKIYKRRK

## O=P(O)(O)C(Nc1cc(OCc2ccccc2)ccn1)P(=O)(O)O [TH-Z106]
[1]; [5]
  IC50: 0.108 µM

## O=C(O)C[C@H](O)C[C@H](O)/C=C/c1c(C2CC2)nc2ccccc2c1-c1ccc(F)cc1 [pitavastatin, reference compound]
[2]
  IgM and IgG antibody titers vs PBS or DMSO control: significantly higher titers

## CCCCCCOc1ccn2c(CC(O)(P(=O)(O)O)P(=O)(O)O)cnc2c1 [TH-Z97, (1-hydroxy-2-(7-n-hexyloxyimidazo[1,2-a]pyridin-3-yl)ethane-1,1-diyl)bisphosphonic acid]
[1]
  IC50: 0.06 µM
[2]; Day 7 and Day 14, OVA
  IgG antibody titer vs PBS control: significantly higher titers

## CCCCOc1ccc2c(c1)ncn2CC(O)(P(=O)(O)O)P(=O)(O)O [TH-Z150]
[1]; [6]
  IC50: 0.14 µM
[1]; [7]
  IC50: 0.14 µM
[3]
  IC50: 0.28 µM
[4]
  IC50: 0.78 µM
MDA-MB-231 cells
  IC50: 128000 nM

## CC(=C\C(=O)O)/C=C(\C)C[C@H](C)CCCC[C@H]1OC(=O)[C@@H]1CO [Hymeglusin, 11-[3R-(hydroxymethyl)-4-oxo-2R-oxetanyl]-3,5,7R-trimethyl-2E,4E-undecadienoic acid, reference compound]
[2]; 100 μg, intramuscular, fourteen days after immunization
  IgG antibody titer vs PBS control: significantly higher titers

## CC[C@H](C)C(=O)O[C@H]1C[C@@H](C)C=C2C=C[C@H](C)[C@H](CC[C@@H]3C[C@@H](O)CC(=O)O3)[C@H]21 [lovastatin, reference compound]
[2]
  adjuvant effect among statin drugs: most significant adjuvant effects
  IgM and IgG antibody titers vs PBS or DMSO control: significantly higher titers

## O=P(O)(O)C(Nc1cc(-n2cc3c(n2)CCCC3)ccn1)P(=O)(O)O [TH-Z108]
[1]; [5]
  IC50: 0.112 µM

## CCCCCCCCCCCCOc1ccc2c(c1)ncn2CC(O)(P(=O)(O)O)P(=O)(O)O [TH-Z154]
[1]; [6]
  IC50: > 5 µM
[1]; [7]
  IC50: > 5 µM
[3]
  IC50: 5.16 µM
[4]
  IC50: 0.75 µM

## O=P(O)(O)C(O)(Cn1cnc2cc(OCl)ccc21)P(=O)(O)O [II-7]
[1]; [6]
  IC50: 0.16 µM
[3]
  IC50: 0.82 µM
[4]
  IC50: 0.69 µM

## COc1ccc2c(c1)ncn2CC(O)(P(=O)(O)O)P(=O)(O)O [TH-Z79]
[1]; [6]
  IC50: 0.1 to 0.3 µM
[1]; [7]
  IC50: 0.1 to 0.3 µM
[3]
  IC50: 0.61 µM
[4]
  IC50: 0.96 µM
MDA-MB-231 cells
  IC50: 50900 nM

## CCCCCOc1ccc2c(c1)ncn2CC(O)(P(=O)(O)O)P(=O)(O)O [TH-Z151]
[1]; [6]
  IC50: 0.12 µM
[1]; [7]
  IC50: 0.12 µM
[3]
  IC50: 0.46 µM
[4]
  IC50: 1.25 µM
MDA-MB-231 cells
  IC50: 406000 nM

## CCOc1ccc2c(c1)ncn2CC(O)(P(=O)(O)O)P(=O)(O)O [TH-Z148]
[1]; [6]
  IC50: 0.068 µM
[1]; [7]
  IC50: 0.068 µM
[3]
  IC50: 0.56 µM
[4]
  IC50: 1.86 µM
MDA-MB-231 cells
  IC50: 7300 nM

## CC[C@H](C)C(=O)O[C@H]1CCC=C2C=C[C@H](C)[C@H](CC[C@@H]3C[C@@H](O)CC(=O)O3)[C@H]21 [mevastatin, reference compound]
[2]
  adjuvant effect among statin drugs: most significant adjuvant effects
  IgM and IgG antibody titers vs PBS or DMSO control: significantly higher titers

## NC(=O)c1cc(COc2ccnc(NC(P(=O)(O)O)P(=O)(O)O)c2)ccn1 [TH-Z109]
[1]; [5]
  IC50: 0.643 µM

## CC(C)c1nc(N(C)S(C)(=O)=O)nc(-c2ccc(F)cc2)c1/C=C/[C@@H](O)C[C@@H](O)CC(=O)O [rosuvastatin, reference compound]
[2]
  IgM and IgG antibody titers vs PBS or DMSO control: significantly higher titers

## O=P([O-])([O-])C(CCCc1cccc(Oc2ccccc2)c1)S(=O)(=O)[O-].[K+].[K+].[K+] (stereo not shown) [TH-Z66, reference compound]
[2]; 7 days after immunization
  IgG antibody titer vs control group: lower than those in mice in the control group
[2]; SQS inhibitor
  adjuvant effect: does not have an adjuvant effect
[2]; SQS inhibitor 100 μg with OVA, sole
  IgG and IgM antibody titers vs PBS control: did not differ significantly

## CC(C)n1c(/C=C/C(O)CC(O)CC(=O)O)c(-c2ccc(F)cc2)c2ccccc21 (stereo not shown) [fluvastatin, reference compound]
[2]
  IgM and IgG antibody titers vs PBS or DMSO control: significantly higher titers
